Key:
[1] = test system: homozygous mice; experiment: Blood pressure of homozygous mice on HF diet with/without doxycycline, weekly MTX injection (non-invasive tail pressure measurement); assay type: in vivo; conditions: male homozygous mice, HF diet with/without Dox, MTX 1 mg/kg i.p. once a week; FIG. 12A
Method: The mice are divided into 3 groups for experiments, wild-type mice (Wt), homozygous mice (Hom) and heterozygous mice (Het), with each group having 15 mice. The mice are fed with normal diet (Chow) until 8 weeks old, and are administrated tetracycline analog doxycycline (1 to 2 mg/ml) with water. The blood pressure changes of mice are measured periodically. The method for measuring the blood pressure of mice is the method of non-invasive tail pressure measurement (iiTC Life Science, Woodland Hills, CA), wherein the mice are fixed in the sleeve and stay quiet in the sleeve for 10 minutes. Then the instrument is operated to measure the blood pressure at the tail of mice using […], three measurements are made for each operation, and the average is taken. Mice blood is collected, and body weight, heart weight, spleen weight, blood lipids and blood pressure of mice are measured.
(§1) Homozygous mice, divided into 5 groups, are to fed with normal diet (Chow), high-fat diet (HF), high-fat diet plus boostin (HF+D), high-fat diet plus methotrexate (MTX) (HF+M), and high-fat diet plus boostin and methotrexate (HF+D+M). […] The blood pressure changes of the mice are periodically detected, and the data such as blood, blood lipids, blood pressure and death data etc. of the mice are collected. […]

[2] = test system: homozygous mice; experiment: Survival of hypertensive (Dox) homozygous mice on high-fat diet, weekly methotrexate injection; assay type: in vivo; conditions: hypertension (Dox) combined with high-fat diet, methotrexate 1 mg/kg weekly, at 8 weeks of co-administration, control 43%, FIG. 12B
Text: (§2) Homozygous mice, divided into 5 groups, are to fed with normal diet (Chow), high-fat diet (HF), high-fat diet plus boostin (HF+D), high-fat diet plus methotrexate (MTX) (HF+M), and high-fat diet plus boostin and methotrexate (HF+D+M). […] Homozygous mice are fed with normal diet (Chow) until 8 weeks old, and are fed with high fat diet HF (HF formula: 21.2% fat, 48.7% carbohydrate, 17.3% protein, and 0.25% cholesterol) for 8 weeks. The mice are divided in to groups, with each group having 15 mice. The HF group is fed with high-fat diet, and is injected with 100 μl of physiological saline weekly. The HF+M group is fed with high-fat diet, and is injected with methotrexate at a dose of 1 mg/kg once a week. The HF+D group is fed with high-fat diet and 1-2 mg/ml of doxycycline together with drinking water, and is injected with 100 μl of physiological saline weekly. The HF+D+M group is fed with high-fat diet, injected with methotrexate at a dose of 1 mg/kg once a week, and fed with doxycycline at 1-2 mg/ml together with drinking water. The blood pressure changes of the mice are periodically detected, and the data such as blood, blood lipids, blood pressure and death data etc. of the mice are collected.
As shown in FIGS. 11A to 11D, hypertension combined with a high-fat diet induce higher accumulation of triglycerides in the blood of mice. […]

[3] = test system: homozygous mice; experiment: Quantification of ascending aortic atherosclerotic plaques in homozygous mice on HF diet with/without Dox, weekly MTX; assay type: in vivo; conditions: hypertensive (Dox) homozygous mice fed HF diet for 8 weeks, control 46%, P<0.05, FIGS. 12C-D
Text: Homozygous mice (Hom) and ApoE knockout mice (KO) are used as controls, the experiment is employed by dividing the mice into four groups, each group has 15 mice, four groups being normal diet group (Chow), high fat diet group (HF), higher fat diet group (H-HF) and ultra-high fat diet group (CH-HF). The mice are fed with normal diet group (Chow) until 8 weeks old and then are fed with different high fat diet, respectively being HF feed (HF formula: 21.2% fat, 48.7% carbohydrate, 17.3% protein, and 0.25% cholesterol), H-HF feed (H-HF formula: 21.2% fat, 48.7% carbohydrate, 17.3% protein, and 1.25% cholesterol), and CH-HF feed (CH-HF formula: 21.2% fat, 48.7% carbohydrate, 17.3% protein, 1.25% cholesterol, and 0.5% cholic acid). After 8 weeks of treatment, collecting the blood of the mice, detecting the body weight, heart weight, spleen weight and blood lipids of the mice, and isolating the mice aorta for oil red O staining so as to quantify the atherosclerotic plaque content.
as §1

[4] = test system: homozygous mice; experiment: Detection of cytokines and adhesion molecules in plasma of homozygous mice on HF diet with/without Dox, weekly MTX; assay type: in vivo
Text: as §2
As shown in FIGS. 11A to 11D, hypertension combined with a high-fat diet induce higher accumulation of triglycerides in the blood of mice. The inventors, using homozygous mice, have studied the effects of methotrexate (MTX) (an anti-inflammatory drug) on cardiovascular. Male homozygous mice are fed with HF diet with/without the addition of doxycycline (Dox), and are further randomized by intraperitoneal injection of MTX or control (vector) weekly. […] Hypertension combined with a high-fat diet induced higher mortality of mice, but if injected with methotrexate weekly, the survival rate of mice is increased at 8 weeks of co-administration (74% versus 43%, FIG. 12B).

[5] = test system: IL-6, ICAM-1, E-selectin, VCAM-1 expressions; conditions: general statement on the anti-inflammatory drug; cited from earlier work
[6] = test system: patients suffering from long-term inflammatory diseases such as rheumatoid arthritis; conditions: clinically, low doses; patients with long-term inflammatory diseases such as rheumatoid arthritis; ref. [10]; cited from earlier work
[7] = hypertensive (Dox) homozygous mice, HF diet, MTX weekly, FIG. 12H-J
[8] = induced hypertensive MTX group compared with control group, FIGS. 12K-S

CN(Cc1cnc2nc(N)nc(N)c2n1)c1ccc(C(=O)N[C@@H](CCC(=O)O)C(=O)O)cc1 [MTX, methotrexate]
blood pressure of the mice [1]: would not alter
survival rate of mice [2]: 74%
atherosclerotic lesions [3]: 34%
plasma concentration of MCP-5, intercellular adhesion molecule-1 and vascular cell adhesion molecules ([4]; homozygous mice having normal blood pressure, HF diet, MTX weekly, FIG. 12H-J): would not produce any effect
plasma concentration of intercellular adhesion molecule-1 [4, 7]: would significantly reduce
plasma concentration of monocyte chemoattractant protein (MCP)-5 [4, 7]: would significantly reduce
E-selectin level in plasma [4, 8]: decreased level
IL-1β level in plasma [4, 8]: decreased level
IL-6 level in plasma [4, 8]: decreased level
IL-17 level in plasma [4, 8]: decreased level
MCP-1 level in plasma [4, 8]: decreased level
P-selectin level in plasma [4, 8]: decreased level
granulocyte colony-stimulating factor level in plasma [4, 8]: decreased level
interferon-γ level in plasma [4, 8]: decreased level
tumor necrosis factor-α level in plasma [4, 8]: decreased level
IL-6, ICAM-1, E-selectin, VCAM-1 expressions [5]: can down-regulate
cardiovascular risk in patients [6]: could reduce cardiovascular risk
